Reference: patent publication US11938121B2, “Treatment of infections and biofilm formation using a cellulose synthase inhibitor” (Purdue Research Foundation, priority 2020, dated 2024)
Read-outs that look alike come from different tables or passages of the source.

Assays:
[1] = molecular target: T1, GFP-CESA6c (central cytosolic domain of AtCESA6) (Arabidopsis thaliana, UniProt Q94JQ6); experiment: MST assay with GFP-CESA6c; type: binding; settings: for interaction with CESA6c: 100 nM GFP-CESA6c
T1 construct: made in house; host or cells: E. coli
Description: To obtain the central cytosolic domain of AtCESA6 for the MST assay, we inserted the GFP coding sequence into the SacI and PstI restriction enzyme sites of the pRSF-Duet-1 vector (Huang et al., 2020). The GFP coding sequence was amplified from the pUBN-GFP-DEST vector. The sequence encoding the central cytosolic domain of CESA6 (CESA6c) was amplified from Col-0 cDNA and fused with GFP at the C-terminus. CESA6c construct was used as a template for creating CESA6c^P595S construct by site-directed mutagenesis. Protein purification was performed as previously described (Huang et al., 2020).
MST assays were carried out using a Monolith NT.115 (NanoTemper) machine at the Chemical Genomics Facility at Purdue University. […] The ES20-1 was dissolved in DMSO, and the final concentration of DMSO was 5% (vol/vol). MST standard capillaries were used to load the samples into the MST instrument. Triplicate reactions were performed for each test. The MST data were processed using MO. Affinity Analysis Version 2.3 software.

[2] = system: AtCESA6 (cesa6 alleles es20r1-es20r15); experiment: Root growth of EMS-induced cesa6 mutants es20r1-es20r15 on ES20 analogs; type: in vivo, Arabidopsis thaliana; settings: compared with wild-type/control plants
Description: A subset of active ES20 analogs likely target the catalytic domain of AtCESA6. […] Since ES20 and the nine active ES20 analogs share highly similar structures, we reasoned whether these active analogs target AtCESA6 as well. We therefore examined the growth of es20r1-es20r15 plants in the presence of nine active ES20 analogs compared to wild-type plants.
(§1) To test the inhibitory effects of different chemicals on plant growth, wild-type Arabidopsis Col-0 plants were used. The seeds of plants used for growth assays or live cell imaging were sequentially sterilized with 50% bleach and 75% ethanol. […] To quantify the inhibitory effects of different ES20 active analogs on the root growth of Arabidopsis wildtype, EMS mutants, and transgenic plants expressing mutated AtCESA6 in prc1-1 background, sterilized Col-0, mutants, and transgenic plants seeds were sown on gridded Petri plates containing ½-strength MS medium supplemented with different concentrations of ES20 analogs. […] The plates were scanned using an Epson Perfection V550 scanner after 7 days of growth, and the root lengths of plants were quantified using ImageJ software. […] The Petri dishes were scanned, and hypocotyl length was measured using ImageJ. Transgenic plants expressing fluorescence-tagged PIN2, PIP2a, HDEL, VHA-a1, and GOT1p were as reported previously (Xu and Scheres, Plant Cell, 2005, 17, 525-536).

[3] = system: AtCESA6 carrying missense mutations in prc1-1; experiment: Root growth of transgenic plants expressing mutated AtCESA6 in prc1-1; type: in vivo, Arabidopsis thaliana; settings: D562N, D564N, D785N, Q823E, R826A, W827A in prc1-1
Description: We then examined whether transgenic plants expressing AtCESA6 with predicted missense mutations at the catalytic site in prc1-1 background would have altered sensitivity to active ES20 analogs. […] However, the responses of two transgenic lines expressing AtCESA6 carrying missense mutations outside of the catalytic site (L365F and D395N) to nine active ES20 analogs were similar to those of wild-type plants (FIG. 2B).
as §1, with “Transgenic plants expressing fluorescence-tagged PIN2, PIP2a, HDEL, VHA-a1, and GOT1p were as reported previously (Xu and Scheres, Plant Cell, 2005, 17, 525-536).” left out

[4] = molecular target: T2, GFP-CESA6c: GFP-tagged central cytosolic domain of AtCESA6 (cellulose synthase, CESA6) with a His-SUMO tag (Arabidopsis thaliana, UniProt Q94JQ6); experiment: Microscale thermophoresis (MST) binding to purified GFP-tagged CESA6c (wild-type); settings: read-out: Kd, thermophoresis binding curve, GFP-CESA6c
T2 construct: His-SUMO; made in house; host or cells: E. coli
T2 sequence (Q94JQ6 322-868 limits assumed): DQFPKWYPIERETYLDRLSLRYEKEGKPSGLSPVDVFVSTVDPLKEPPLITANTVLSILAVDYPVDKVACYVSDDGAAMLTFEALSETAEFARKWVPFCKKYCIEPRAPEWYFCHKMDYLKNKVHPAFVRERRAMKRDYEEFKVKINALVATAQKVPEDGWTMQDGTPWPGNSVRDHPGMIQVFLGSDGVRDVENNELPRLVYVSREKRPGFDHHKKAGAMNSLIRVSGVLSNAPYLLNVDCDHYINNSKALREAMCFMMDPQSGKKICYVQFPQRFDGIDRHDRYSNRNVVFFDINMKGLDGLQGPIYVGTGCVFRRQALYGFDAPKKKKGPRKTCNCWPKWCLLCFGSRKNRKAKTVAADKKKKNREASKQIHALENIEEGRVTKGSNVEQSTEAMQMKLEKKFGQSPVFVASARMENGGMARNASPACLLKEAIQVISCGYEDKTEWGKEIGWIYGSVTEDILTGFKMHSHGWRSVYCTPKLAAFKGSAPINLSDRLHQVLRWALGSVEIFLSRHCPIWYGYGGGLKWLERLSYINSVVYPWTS
Description: FIGS. 3A-3Q. […] FIG. 3A to FIG. 3G. […] FIG. 3A. Representative 5-day-old dark-grown Arabidopsis Col-0 seedlings grown on growth medium supplemented with different concentrations of ES20 or ES20-1. Scale bar: 1 cm. FIG. 3B. Quantification of hypocotyl length of 5-day-old dark-grown Arabidopsis Col-0 seedlings described in FIG. 3A. Data represent mean±SD (n=12 seedlings). FIG. 3C. Quantification of crystalline cellulose content in the hypocotyl cell walls of 7-day-old dark-grown Col-0 seedlings grown on growth medium supplemented with DMSO (0.1%), 1 μM ES20, or 1 μM ES20-1. Data represent mean±SD (n=3 biological replicates). FIG. 3D and FIG. 3E. […] FIG. 3D. Representative image of 6-day-old rice seedlings grown in sterile water supplemented with DMSO (0.1%), 20 μM ES20, or 20 μM ES20-1. Scale bar: 1 cm. FIG. 3E. Quantification of root length of rice seedlings as described in FIG. 3D. Data represent mean±SD (n=10 seedlings). FIG. 3F and FIG. 3G. […] FIG. 3F. Representative image of 6-day-old maize seedlings grown in sterile water supplemented with DMSO (0.1%), 20 μM ES20, or 20 μM ES20-1. Scale bar: 1 cm. FIG. 3G. Quantification of root length of maize seedlings as described in FIG. 3F. Data represent mean±SD (n=12 seedlings). […] FIG. 3H. Representative immunoblot from a DARTS assay of ES20-1 and YFP-AtCESA6. FIG. 3I. Quantitative analysis of the band intensity of YFP-AtCESA6 and SEC12 in ES20-1-treated samples divided by that of DMSO-treated samples in the DARTS assay described in FIG. 3H. Data represent mean±SD (n=6 biological replicates). FIGS. 3J-3N. […] FIG. 3J. Coomassie blue staining of purified GFP-tagged CESA6c with a His-SUMO tag (lane 2). FIGS. 3K, 3L, 3M, 3N. […] FIG. 3O. Coomassie blue staining of purified GFP-tagged CESA6c^P595S with a His-SUMO tag (lane 2). FIG. 3P and FIG. 3Q. […] Statistically significant differences in FIG. 3B were determined using one-way ANOVA followed by Tukey's multiple comparisons test. Lower-case letters represent ANOVA results for plants grown on medium with 0.1% DMSO, different concentrations of ES20 or ES20-1. […]

[5] = molecular target: T3, GFP-CESA6c^P595S: GFP-tagged central cytoplasmic domain of AtCESA6 (cellulose synthase, CESA6) carrying missense mutation P595S, with a His-SUMO tag (Arabidopsis thaliana, UniProt Q94JQ6, P595S); experiment: Microscale thermophoresis (MST) binding to purified GFP-tagged CESA6c^P595S (missense mutant)
T3 construct: We purified AtCESA6 central cytoplasmic domain carrying missense mutation P595S (CESA6c^P595S); His-SUMO; made in house; host or cells: E. coli
Description: FIGS. 3A-3Q. […] FIG. 3A to FIG. 3G. […] FIG. 3A. Representative 5-day-old dark-grown Arabidopsis Col-0 seedlings grown on growth medium supplemented with different concentrations of ES20 or ES20-1. Scale bar: 1 cm. FIG. 3B. Quantification of hypocotyl length of 5-day-old dark-grown Arabidopsis Col-0 seedlings described in FIG. 3A. Data represent mean±SD (n=12 seedlings). FIG. 3C. Quantification of crystalline cellulose content in the hypocotyl cell walls of 7-day-old dark-grown Col-0 seedlings grown on growth medium supplemented with DMSO (0.1%), 1 μM ES20, or 1 μM ES20-1. Data represent mean±SD (n=3 biological replicates). FIG. 3D and FIG. 3E. […] FIG. 3D. Representative image of 6-day-old rice seedlings grown in sterile water supplemented with DMSO (0.1%), 20 μM ES20, or 20 μM ES20-1. Scale bar: 1 cm. FIG. 3E. Quantification of root length of rice seedlings as described in FIG. 3D. Data represent mean±SD (n=10 seedlings). FIG. 3F and FIG. 3G. […] FIG. 3F. […] Quantification of root length of maize seedlings as described in FIG. 3F. […] Quantitative analysis of the band intensity of YFP-AtCESA6 and SEC12 in ES20-1-treated samples divided by that of DMSO-treated samples in the DARTS assay described in FIG. 3H. […] Statistically significant differences in FIG. 3B were determined using one-way ANOVA followed by Tukey's multiple comparisons test. […]

Structure (SMILES)	interaction with CESA6c [1]	sensitivity of es20r1-es20r15 mutants in growth [2]	relative binding affinity to CESA6c ([1]; MST)	sensitivity of transgenic lines with AtCESA6 catalytic site mutations [3]	Kd ([4]; FIG. 3N, GFP-CESA6c purified from E. coli, pH 7.5, 10 mM MgCl2, 0.05% Tween 20, triplicate) [µM]	Kd [5] [µM]	Kd ([4]; FIGS. 3K-3M, 100 nM GFP-CESA6c purified from E. coli, pH 7.5, 10 mM MgCl2, 0.05% Tween 20, 5% DMSO, triplicate) [µM]
CC1(C)S[C@@H]2[C@H](NC(=O)[C@H](N)c3ccccc3)C(=O)N2[C@H]1C(=O)O [ampicillin, reference compound]	did not interact	–	–	–	–	–	–
Cc1cccnc1NC(=S)NC(=O)c1cccc([N+](=O)[O-])c1C [ES20-9]	also interacts	14 out of 15 mutants except es20r13 show reduced sensitivity	slightly lower than ES20-1	Reduced sensitivity	5.1 ± 4.8	–	–
COc1ccc(C(=O)NC(=S)NNC(=O)c2ccccc2C)cc1 [ES20]	–	–	–	–	–	24.5 ± 26.9	9.7 ± 3.3
